# Measurements from ChEMBL document CHEMBL6083289, “Deciphering the Therapeutic Potential of Novel Pentyloxyamide-Based Class I, IIb HDAC Inhibitors against Therapy-Resistant Leukemia” (J Med Chem, 2024).
# How the values were obtained:
# Histone deacetylase 8 = target: T1, Histone deacetylase 8 (Homo sapiens, UniProt Q9BY41)
# T1 sequence (Q9BY41 whole entry): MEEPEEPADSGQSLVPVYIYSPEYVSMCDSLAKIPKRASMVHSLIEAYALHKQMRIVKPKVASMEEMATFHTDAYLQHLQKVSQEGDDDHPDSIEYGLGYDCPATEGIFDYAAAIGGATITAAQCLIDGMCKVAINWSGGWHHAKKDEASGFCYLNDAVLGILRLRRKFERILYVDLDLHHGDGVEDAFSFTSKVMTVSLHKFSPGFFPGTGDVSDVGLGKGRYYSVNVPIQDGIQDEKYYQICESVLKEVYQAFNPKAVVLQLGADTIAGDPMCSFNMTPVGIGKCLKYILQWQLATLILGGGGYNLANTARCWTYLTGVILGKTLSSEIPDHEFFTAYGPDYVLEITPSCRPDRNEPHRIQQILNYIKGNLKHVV
# Description: Inhibition of human recombinant HDAC8 using RHKAcKAc as fluorogenic substrate incubated for 90 mins by fluorescence based analysis
# [1] = target: T2, Protein deacetylase HDAC6 (Homo sapiens, UniProt Q9UBN7); experiment: Inhibition of human recombinant HDAC6 using RHKKAc as fluorogenic substrate incubated for 90 mins by fluorescence based analysis
# T2 sequence (Q9UBN7 whole entry): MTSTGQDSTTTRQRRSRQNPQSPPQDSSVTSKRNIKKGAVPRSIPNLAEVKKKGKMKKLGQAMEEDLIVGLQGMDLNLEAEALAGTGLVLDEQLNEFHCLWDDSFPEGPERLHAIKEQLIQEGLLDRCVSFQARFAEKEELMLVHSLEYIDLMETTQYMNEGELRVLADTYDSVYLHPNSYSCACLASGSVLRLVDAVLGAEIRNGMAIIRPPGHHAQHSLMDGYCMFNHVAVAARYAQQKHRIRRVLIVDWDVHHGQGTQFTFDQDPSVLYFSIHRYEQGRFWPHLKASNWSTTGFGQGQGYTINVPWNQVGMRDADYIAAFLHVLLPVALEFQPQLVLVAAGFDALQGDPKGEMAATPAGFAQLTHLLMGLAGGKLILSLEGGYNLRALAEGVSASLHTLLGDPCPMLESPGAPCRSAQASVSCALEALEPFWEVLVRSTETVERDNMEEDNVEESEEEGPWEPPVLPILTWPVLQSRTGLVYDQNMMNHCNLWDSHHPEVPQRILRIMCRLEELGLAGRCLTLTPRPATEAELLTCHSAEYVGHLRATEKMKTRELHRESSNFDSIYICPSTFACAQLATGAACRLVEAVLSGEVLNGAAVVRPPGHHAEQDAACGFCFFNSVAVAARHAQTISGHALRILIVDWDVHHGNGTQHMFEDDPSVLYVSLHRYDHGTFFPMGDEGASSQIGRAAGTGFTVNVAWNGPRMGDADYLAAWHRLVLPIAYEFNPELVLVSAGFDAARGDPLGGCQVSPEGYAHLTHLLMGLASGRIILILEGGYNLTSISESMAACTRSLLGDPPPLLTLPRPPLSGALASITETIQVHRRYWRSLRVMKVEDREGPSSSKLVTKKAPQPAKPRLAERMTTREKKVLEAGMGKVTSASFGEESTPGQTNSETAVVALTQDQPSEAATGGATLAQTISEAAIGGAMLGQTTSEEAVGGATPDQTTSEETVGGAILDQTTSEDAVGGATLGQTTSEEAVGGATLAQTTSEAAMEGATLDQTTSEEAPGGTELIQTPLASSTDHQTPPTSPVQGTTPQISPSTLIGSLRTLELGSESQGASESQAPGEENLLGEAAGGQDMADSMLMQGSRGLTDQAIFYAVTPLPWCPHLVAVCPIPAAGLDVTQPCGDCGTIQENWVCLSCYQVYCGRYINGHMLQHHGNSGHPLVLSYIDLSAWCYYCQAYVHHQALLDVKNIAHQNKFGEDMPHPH
# Histone deacetylase 4 = Histone deacetylase 4 (Homo sapiens, UniProt P56524)
# Description: Inhibition of human recombinant HDAC4 using Boc-Lys(trifluoroacetyl)-AMC) as fluorogenic substrate incubated for 90 mins by fluorescence based analysis
# Histone deacetylase 1 = Histone deacetylase 1 (Homo sapiens, UniProt Q13547)
# Description: Inhibition of human recombinant HDAC1 using RHKKAc as fluorogenic substrate incubated for 90 mins by fluorescence based analysis
# Histone deacetylase 11 = target: T3, Histone deacetylase 11 (Homo sapiens, UniProt Q96DB2)
# T3 sequence (Q96DB2 whole entry): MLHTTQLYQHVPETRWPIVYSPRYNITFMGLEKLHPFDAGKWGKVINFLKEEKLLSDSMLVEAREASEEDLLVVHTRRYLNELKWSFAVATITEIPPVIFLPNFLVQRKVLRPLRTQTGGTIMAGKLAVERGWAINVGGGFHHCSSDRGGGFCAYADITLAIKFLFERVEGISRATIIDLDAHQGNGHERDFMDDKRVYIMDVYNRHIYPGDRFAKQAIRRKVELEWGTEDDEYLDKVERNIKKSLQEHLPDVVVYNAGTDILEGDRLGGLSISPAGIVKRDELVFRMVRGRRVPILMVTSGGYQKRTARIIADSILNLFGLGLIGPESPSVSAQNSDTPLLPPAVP
# [2] = target: Histone deacetylase 3/Nuclear receptor corepressor 2 (HDAC3/NCoR2) (Homo sapiens, UniProt O15379); experiment: Inhibition of human recombinant Human HDAC3/NCOR2 using RHKKAc as fluorogenic substrate incubated for 90 mins by fluorescence based analysis; format: protein-complex assay
# HPBALL = experiment: Antiproliferative activity against human HPBALL cells assessed as inhibition of cell growth incubated for 72 hrs by celltiter-glo assay; format: functional, cell-based
# K562 = experiment: cells; format: functional, cell-based; settings: Homo sapiens, K562, 72 h
# HL-60 = experiment: cells; settings: Homo sapiens, HL-60, 72 h
# [3] = Tmax in Balb/c mouse at 50 mg/kg, po measured upto 6 hrs by LC-MS/MS analysis; format: ADME, organism-based; settings: in vivo
# [4] = Half life in Balb/c mouse at 50 mg/kg, po measured upto 6 hrs by LC-MS/MS analysis; settings: in vivo
# [5] = AUClast in mouse at 50 mg/kg, po by LC/MS/MS analysis; settings: in vivo
# [6] = Metabolic stability in human liver microsomes assessed as half life measured upto 60 mins in presence of NADPH regenerating system LC-MS analysis
# in vivo = settings: Balb/c, mouse, po, 50 mg/kg
# [7] = Half life in mouse at 50 mg/kg, po by LC/MS/MS analysis; settings: in vivo
# [8] = Ratio of drug concentration in human blood to plasma; format: ADME, cell-free
# Chain of Histone deacetylase 4 (P56524 whole entry): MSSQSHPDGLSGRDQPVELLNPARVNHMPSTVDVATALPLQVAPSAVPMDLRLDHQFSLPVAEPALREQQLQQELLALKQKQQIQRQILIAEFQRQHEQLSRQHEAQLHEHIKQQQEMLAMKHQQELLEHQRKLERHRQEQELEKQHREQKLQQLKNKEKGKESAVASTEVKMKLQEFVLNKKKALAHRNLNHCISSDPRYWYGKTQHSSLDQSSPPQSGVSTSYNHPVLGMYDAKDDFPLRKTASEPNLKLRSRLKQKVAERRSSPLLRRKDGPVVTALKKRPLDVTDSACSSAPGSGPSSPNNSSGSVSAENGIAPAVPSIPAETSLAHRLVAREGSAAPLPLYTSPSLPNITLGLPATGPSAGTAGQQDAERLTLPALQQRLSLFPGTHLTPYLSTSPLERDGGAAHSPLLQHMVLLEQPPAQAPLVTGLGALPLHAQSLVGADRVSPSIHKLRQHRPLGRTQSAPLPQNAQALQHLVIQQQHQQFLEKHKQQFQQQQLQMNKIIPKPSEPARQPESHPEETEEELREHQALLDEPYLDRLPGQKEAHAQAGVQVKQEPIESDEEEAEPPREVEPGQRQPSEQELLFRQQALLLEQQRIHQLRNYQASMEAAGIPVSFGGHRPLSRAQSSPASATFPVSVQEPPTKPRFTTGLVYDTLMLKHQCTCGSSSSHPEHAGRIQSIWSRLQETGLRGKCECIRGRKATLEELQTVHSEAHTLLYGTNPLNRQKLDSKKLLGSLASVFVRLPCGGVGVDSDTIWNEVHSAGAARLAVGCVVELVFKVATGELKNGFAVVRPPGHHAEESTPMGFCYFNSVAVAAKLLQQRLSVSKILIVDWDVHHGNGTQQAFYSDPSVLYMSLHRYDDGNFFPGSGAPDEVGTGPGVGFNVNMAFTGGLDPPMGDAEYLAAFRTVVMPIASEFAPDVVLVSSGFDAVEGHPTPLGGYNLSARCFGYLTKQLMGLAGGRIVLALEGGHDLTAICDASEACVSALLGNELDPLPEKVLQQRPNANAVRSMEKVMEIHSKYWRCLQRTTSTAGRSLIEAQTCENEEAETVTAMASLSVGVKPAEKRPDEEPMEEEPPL
# Chain of Histone deacetylase 3/Nuclear receptor corepressor 2 (HDAC3/NCoR2) (O15379 whole entry): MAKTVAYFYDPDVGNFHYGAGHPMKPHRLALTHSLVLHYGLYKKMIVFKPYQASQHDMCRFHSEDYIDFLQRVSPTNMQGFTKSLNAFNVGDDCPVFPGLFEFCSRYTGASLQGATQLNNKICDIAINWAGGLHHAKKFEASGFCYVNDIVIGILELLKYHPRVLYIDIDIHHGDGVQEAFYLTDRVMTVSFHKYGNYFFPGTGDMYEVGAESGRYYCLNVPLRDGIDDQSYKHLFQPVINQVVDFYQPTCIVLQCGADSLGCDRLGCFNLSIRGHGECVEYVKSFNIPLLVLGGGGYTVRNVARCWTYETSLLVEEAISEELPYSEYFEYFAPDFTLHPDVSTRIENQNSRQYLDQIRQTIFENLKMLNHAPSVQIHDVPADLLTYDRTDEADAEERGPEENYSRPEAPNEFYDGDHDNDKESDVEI
# Chain of Histone deacetylase 3/Nuclear receptor corepressor 2 (HDAC3/NCoR2) (Q9Y618 whole entry, further chain): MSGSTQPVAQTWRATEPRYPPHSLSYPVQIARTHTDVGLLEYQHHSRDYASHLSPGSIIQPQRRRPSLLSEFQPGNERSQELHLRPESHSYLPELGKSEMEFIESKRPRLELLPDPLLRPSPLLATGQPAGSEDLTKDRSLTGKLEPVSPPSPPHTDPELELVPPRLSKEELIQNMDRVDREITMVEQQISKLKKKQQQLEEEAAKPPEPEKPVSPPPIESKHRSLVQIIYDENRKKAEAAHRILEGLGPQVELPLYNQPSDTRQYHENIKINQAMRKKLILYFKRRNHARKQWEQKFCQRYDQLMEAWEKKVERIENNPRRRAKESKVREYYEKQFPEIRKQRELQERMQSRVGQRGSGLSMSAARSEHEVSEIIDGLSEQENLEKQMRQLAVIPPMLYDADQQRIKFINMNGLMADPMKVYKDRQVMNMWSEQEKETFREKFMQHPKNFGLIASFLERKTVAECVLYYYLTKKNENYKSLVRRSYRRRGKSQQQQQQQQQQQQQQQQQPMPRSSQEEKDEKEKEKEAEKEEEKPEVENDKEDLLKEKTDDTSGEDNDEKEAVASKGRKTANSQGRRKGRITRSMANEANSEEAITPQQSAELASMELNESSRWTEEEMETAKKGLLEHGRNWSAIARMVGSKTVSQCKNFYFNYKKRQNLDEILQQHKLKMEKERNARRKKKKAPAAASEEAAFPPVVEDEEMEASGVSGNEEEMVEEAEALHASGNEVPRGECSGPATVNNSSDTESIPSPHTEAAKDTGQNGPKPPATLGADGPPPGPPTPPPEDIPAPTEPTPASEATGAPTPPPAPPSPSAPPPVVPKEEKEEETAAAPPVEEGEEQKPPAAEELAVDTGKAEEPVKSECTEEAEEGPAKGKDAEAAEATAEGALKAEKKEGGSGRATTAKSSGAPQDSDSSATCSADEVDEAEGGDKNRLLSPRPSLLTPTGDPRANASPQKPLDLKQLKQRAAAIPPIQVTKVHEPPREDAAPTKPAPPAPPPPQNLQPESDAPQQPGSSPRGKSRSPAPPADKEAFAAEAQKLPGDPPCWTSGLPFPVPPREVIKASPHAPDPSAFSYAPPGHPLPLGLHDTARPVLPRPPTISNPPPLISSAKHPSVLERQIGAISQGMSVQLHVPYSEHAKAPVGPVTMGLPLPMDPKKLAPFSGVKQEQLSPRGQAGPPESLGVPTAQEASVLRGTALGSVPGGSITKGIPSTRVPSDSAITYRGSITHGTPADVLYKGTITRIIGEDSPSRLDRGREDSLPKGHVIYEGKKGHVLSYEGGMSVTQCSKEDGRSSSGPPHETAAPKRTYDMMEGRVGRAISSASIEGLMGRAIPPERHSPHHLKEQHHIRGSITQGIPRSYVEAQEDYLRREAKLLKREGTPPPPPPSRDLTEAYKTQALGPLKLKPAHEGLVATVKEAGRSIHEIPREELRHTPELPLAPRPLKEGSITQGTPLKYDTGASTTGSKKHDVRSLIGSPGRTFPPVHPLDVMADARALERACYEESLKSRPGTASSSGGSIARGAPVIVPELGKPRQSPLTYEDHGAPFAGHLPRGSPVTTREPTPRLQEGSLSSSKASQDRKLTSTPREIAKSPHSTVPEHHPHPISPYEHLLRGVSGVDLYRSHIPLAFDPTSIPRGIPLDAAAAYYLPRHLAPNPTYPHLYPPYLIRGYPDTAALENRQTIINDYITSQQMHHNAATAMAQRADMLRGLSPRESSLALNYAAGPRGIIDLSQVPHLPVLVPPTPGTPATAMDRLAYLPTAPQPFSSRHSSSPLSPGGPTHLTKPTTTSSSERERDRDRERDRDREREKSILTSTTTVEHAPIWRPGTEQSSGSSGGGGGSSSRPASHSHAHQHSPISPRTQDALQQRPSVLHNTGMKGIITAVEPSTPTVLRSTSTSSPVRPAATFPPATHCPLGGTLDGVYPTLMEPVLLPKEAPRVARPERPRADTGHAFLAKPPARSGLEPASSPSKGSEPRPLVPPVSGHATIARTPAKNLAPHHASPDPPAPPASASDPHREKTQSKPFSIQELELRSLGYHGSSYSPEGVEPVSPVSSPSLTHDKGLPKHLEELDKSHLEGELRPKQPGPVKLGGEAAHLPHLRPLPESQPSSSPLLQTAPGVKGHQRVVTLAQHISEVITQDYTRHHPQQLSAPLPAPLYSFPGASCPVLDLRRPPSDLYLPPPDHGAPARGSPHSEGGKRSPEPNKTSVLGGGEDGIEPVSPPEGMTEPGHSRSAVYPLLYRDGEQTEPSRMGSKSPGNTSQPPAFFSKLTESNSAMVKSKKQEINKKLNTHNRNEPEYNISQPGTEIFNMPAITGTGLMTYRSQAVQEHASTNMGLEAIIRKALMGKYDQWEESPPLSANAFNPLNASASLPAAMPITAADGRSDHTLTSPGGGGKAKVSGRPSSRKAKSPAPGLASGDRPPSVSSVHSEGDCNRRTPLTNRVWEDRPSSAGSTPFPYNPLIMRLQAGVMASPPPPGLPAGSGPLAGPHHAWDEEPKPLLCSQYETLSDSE
# Chain of Histone deacetylase 1 (Q13547 whole entry): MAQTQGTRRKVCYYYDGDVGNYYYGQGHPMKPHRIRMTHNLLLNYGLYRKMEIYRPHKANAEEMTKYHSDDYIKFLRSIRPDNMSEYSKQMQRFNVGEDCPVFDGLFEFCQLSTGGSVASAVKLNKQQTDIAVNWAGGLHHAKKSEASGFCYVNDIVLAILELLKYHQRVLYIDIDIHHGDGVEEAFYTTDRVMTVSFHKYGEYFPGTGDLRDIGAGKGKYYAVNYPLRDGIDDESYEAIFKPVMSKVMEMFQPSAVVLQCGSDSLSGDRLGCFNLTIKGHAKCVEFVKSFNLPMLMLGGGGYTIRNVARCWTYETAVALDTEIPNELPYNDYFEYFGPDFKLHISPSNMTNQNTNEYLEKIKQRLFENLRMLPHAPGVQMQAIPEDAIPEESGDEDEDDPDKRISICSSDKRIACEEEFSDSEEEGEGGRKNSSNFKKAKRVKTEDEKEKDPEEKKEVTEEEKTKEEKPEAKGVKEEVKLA
compound,measurement,setting,value
COc1cccc(-c2csc(C(=O)NOCCCCCC(=O)NO)n2)c1,IC50,Histone deacetylase 8,5200 nM
same,IC50,[1],26 nM
same,IC50,Histone deacetylase 4,> 100000 nM
COc1ccc(-c2csc(C(=O)NOCCCCCC(=O)NO)n2)cc1,IC50,Histone deacetylase 8,5750 nM
same,IC50,Histone deacetylase 1,40 nM
same,IC50,Histone deacetylase 11,26000 nM
same,IC50,[2],13 nM
same,IC50,[1],38 nM
same,IC50,Histone deacetylase 4,> 100000 nM
COc1ccccc1-c1csc(C(=O)NOCCCCCC(=O)NO)n1,IC50,Histone deacetylase 8,2160 nM
same,IC50,[1],26 nM
same,IC50,Histone deacetylase 4,> 100000 nM
O=C(CCCCCONC(=O)c1nc(-c2ccc(C(F)(F)F)cc2)cs1)NO,IC50,Histone deacetylase 8,4860 nM
same,IC50,[1],108 nM
same,IC50,Histone deacetylase 4,> 100000 nM
O=C(CCCCCCNC(=O)c1cnc(N(c2ccccc2)c2ccccc2)nc1)NO [RICOLINOSTAT],IC50,HPBALL,2580 nM
same,IC50,K562,2930 nM
same,IC50,HL-60,2190 nM
O=C(CCCCCCC(=O)Nc1ccccc1)NO [VORINOSTAT],IC50,HPBALL,824 nM
same,Tmax,[3],4.8 min
same,half-life at 6 h,[4],48 min
same,AUC(0-t),[5],619 ng·h/mL
same,half-life at 1 h,[6],35.9 min
same,AUC(0-t) at 6 h,in vivo,347 ng·h/mL
same,half-life,[7],45 min
O=C(CCCCCONC(=O)c1nc(-c2ccccc2)cs1)NO,IC50,Histone deacetylase 8,4010 nM
same,IC50,[1],75 nM
same,IC50,Histone deacetylase 4,> 100000 nM
O=C(CCCCCONC(=O)c1nc(-c2ccc(F)cc2)cs1)NO,IC50,Histone deacetylase 8,6380 nM
same,IC50,[1],45 nM
same,IC50,Histone deacetylase 4,> 100000 nM
O=C(/C=C/c1cccc(S(=O)(=O)Nc2ccccc2)c1)NO [BELINOSTAT],IC50,HPBALL,269 nM
same,IC50,K562,218 nM
same,IC50,HL-60,158 nM
O=C(CCCCCONC(=O)c1nc(-c2cc3ccccc3o2)cs1)NO,IC50,Histone deacetylase 8,3680 nM
same,IC50,[1],30 nM
same,IC50,Histone deacetylase 4,> 100000 nM
O=C(CCCCCONC(=O)c1nc(-c2cccc(F)c2)cs1)NO,IC50,Histone deacetylase 8,2320 nM
same,IC50,[1],47 nM
same,IC50,Histone deacetylase 4,> 100000 nM
COc1ccccc1OCCNCC(O)COc1cccc2[nH]c3ccccc3c12 (configuration not stated) [CARVEDILOL],blood plasma ratio,[8],0.76
O=C(CCCCCONC(=O)c1nc(-c2ccccc2F)cs1)NO,IC50,Histone deacetylase 8,1290 nM
same,IC50,[1],51 nM
same,IC50,Histone deacetylase 4,> 100000 nM
O=C(CCCCCONC(=O)c1nc(-c2cccs2)cs1)NO,IC50,Histone deacetylase 8,2510 nM
same,IC50,[1],81 nM
same,IC50,Histone deacetylase 4,> 100000 nM
O=C(CCCCCONC(=O)c1nc(-c2ccc(N3CCCC3)cc2)cs1)NO,IC50,Histone deacetylase 8,4800 nM
same,IC50,Histone deacetylase 1,12 nM
same,IC50,Histone deacetylase 11,36000 nM
same,IC50,[2],48 nM
same,IC50,[1],64 nM
same,IC50,Histone deacetylase 4,> 100000 nM
O=C(CCCCCONC(=O)c1nc(-c2ccsc2)cs1)NO,IC50,Histone deacetylase 8,5410 nM
same,IC50,[1],49 nM
same,IC50,Histone deacetylase 4,> 100000 nM
CC(=O)Nc1ccc(C(=O)Nc2ccccc2N)cc1 [TACEDINALINE],IC50,HPBALL,4700 nM
same,IC50,K562,5330 nM
same,IC50,HL-60,1580 nM
Cc1ccc(-c2csc(C(=O)NOCCCCCC(=O)NO)n2)cc1,IC50,Histone deacetylase 8,7010 nM
same,IC50,[1],64 nM
same,IC50,Histone deacetylase 4,> 100000 nM
